From patent publication US9328142B2, “Lipopeptide inhibitors of RAS oncoproteins” (The United States of America, as represented by The …, priority 2011, dated 2016)

Columns and labels:
[1] = system: H2596 malignant pleural mesothelioma cells (K-Ras WT); test: Growth inhibition, thoracic malignancy cell lines: H2596; format: cell-based
[2] = system: Calu3 lung adenocarcinoma cells (K-Ras WT); test: Growth inhibition, thoracic malignancy cell lines: Calu3; format: cell-based
[3] = system: H2009 lung adenocarcinoma cells (K-Ras mutant); test: Growth inhibition, thoracic malignancy cell lines: H2009; format: cell-based
[4] = system: H2882 lung adenocarcinoma cells (K-Ras WT); test: Growth inhibition, thoracic malignancy cell lines: H2882; format: cell-based
[5] = system: H460 large cell carcinoma cells (K-Ras mutant); test: Growth inhibition, thoracic malignancy cell lines: H460; format: cell-based, human
[6] = system: Ras protein in H2009 and H2592 cells; test: Western blot of Ras protein amount in cancer cells; format: cell-based; conditions: 0-3.0 μM, 18 hours
Procedure: A further experiment was undertaken to determine the effect of analogs of helix 6 and HVR on the amount of K-Ras protein in cancer cells. H2009 (lung adenocarcinoma cells) and H2592 (plural mesothelioma cells) were exposed to varying concentrations (0-3.0 μM) of kR-4A-3, kR-4B-3, or kR-H6-3 for 18 hours. The cells then were lysed and the lysate was analyzed by Western blot using anti-Ras mAb (Cell Biolabs, Inc.).

[7] = system: H157 lung squamous cell carcinoma cells (K-Ras mutant); test: Growth inhibition, thoracic malignancy cell lines: H157; format: cell-based
[8] = system: HP-1 malignant pleural mesothelioma cells (K-Ras WT); test: Growth inhibition, thoracic malignancy cell lines: HP-1; format: cell-based; conditions: HP-1, K-Ras WT
[9] = system: H23 lung adenocarcinoma cells (K-Ras mutant); test: Growth inhibition, thoracic malignancy cell lines: H23; format: cell-based
[10] = system: H358 broncheoalveolar cells (K-Ras mutant); test: Growth inhibition, thoracic malignancy cell lines: H358; format: cell-based, human
[11] = system: Calu 6 lung adenocarcinoma cells (K-Ras mutant); test: Growth inhibition, thoracic malignancy cell lines: Calu 6; format: cell-based; conditions: Calu 6, K-Ras mutant
[12] = system: A549 human lung cancer cell line harboring constitutively active Ras mutant; test: MTT growth inhibition assay, A549; format: cell-based
Procedure: MCF-7 (breast cancer), T47D (breast cancer), Colo 205 (colon cancer), JM-1 (rat hepatoma), Sk Mel-2 (melanoma), PLC (human hepatoma), and HepG2 (human hepatoma) were obtained from American Type Cell Culture Collection. MCF-7 cells were grown in RPMI medium supplemented with 10% Fetal Bovine Serum. The remaining cell lines were grown in DMEM medium supplemented with 10% Fetal Bovine Serum. For the assay, cells were seeded into 96 well plates in medium containing 1% Fetal Bovine Serum and 100 μL of a cell suspension containing 5000 cells per well were used for each well. Cell growth was evaluated utilizing MTT ((3-(4,5-Dimethylthiazol-2-yl)-2,5-diphenyltetrazolium). The absorbance of the wells at 544 nm was determined by a FLUOstar/POLARstar Galaxy (BMG Lab Technologies GmbH) microplate reader.
The growth inhibitory activity of compounds was compared using the A549 human lung cancer cell line harboring constitutively active G12D Ras mutant with the help of an MTT assay. […] Stepwise extensions and truncations confirmed that the peptide had the optimal length (see Table 1).
The growth inhibitory activity of compounds was compared using the A549 human lung cancer cell line harboring constitutively active G12D Ras mutant with the help of an MTT assay.

[13] = system: H2373 malignant pleural mesothelioma cells (K-Ras WT); test: Growth inhibition, thoracic malignancy cell lines: H2373; format: cell-based
[14] = system: H2461 malignant pleural mesothelioma cells (K-Ras WT); test: Growth inhibition, thoracic malignancy cell lines: H2461; format: cell-based
[15] = system: HCC15 lung squamous cell carcinoma cells (K-Ras WT); test: Growth inhibition, thoracic malignancy cell lines: HCC15; format: cell-based
[16] = system: HCC95 lung squamous cell carcinoma cells (K-Ras WT); test: Growth inhibition, thoracic malignancy cell lines: HCC95; format: cell-based
K-Ras in H2592 cells = K-Ras in H2592 cells (Homo sapiens, UniProt P01116); conditions: GI50 concentrations, 18 hours
Description: Goat anti-mouse antibodies with Alexa Fluor TM 594 (red) were used to visualize the anti-Ras mouse mAb.

[17] = system: Lewis lung carcinoma LL/2 (LLC1) cells; test: Lewis lung carcinoma LLC1 isograft growth; format: in vivo, female CB57Bl/6 mice; conditions: 10 mg/kg s.c. near the tumor every second day
Procedure: Lewis lung carcinoma LL/2 (LLC1) (ATCC Catalog No. CRL-1642) cells were grown in DMEM medium containing 10% FBS. Cells were trypsinized and suspended in PBS. 3×10^6 LLC1 cells in 200 μl PBS were injected subcutaneously to the right flank of 8 weeks old female CB57Bl/6 mice.
Ras inhibitor injections started 2 weeks after LLC1 injections when tumors were at least 3 mm in diameter. For injections, solid kR-H6-48 was initially dissolved in DMSO to yield 20 mg/mL stock solution. DMSO stocks were diluted 20-fold in PBS pre-warmed to 35-37° C. 200 μl of the resulting solution (10 mg/kg dose) was injected subcutaneously near the tumor(s) every second day. The control group received 200 μl of 5% DMSO in PBS. Tumor size was measured with a caliper before each injection. The mice were sacrificed when the tumors reached maximal allowed size.

[18] = system: activated (GTP-bound) Ras in H358 human lung cancer cells; test: Raf-RBD pull-down of active (GTP-bound) Ras; format: cell-based; conditions: 5 μM, varying exposure times
Procedure: H358 human lung cancer cells were grown in 6-well plates in DMEM medium containing 10% FBS. When the cells were about 70% confluent, the medium was replaced with DMEM containing 1% FBS. Two hours later, Ras inhibitors (kR-H6-48, HR-1, kR-4A-4, or kR-4B-2) were added to provide a final concentration of 5 μM.
After varying exposure times, the cells were rinsed with PBS and lysed. The lysates were cleared by centrifugation, incubated with immobilized Raf-RBD beads (which bind Ras) and analyzed by Western blot using manufacturer's protocols (Cytoskeleton, Inc., Denver, Colo.; Catalog No. BK008). The bands corresponding to active (GTP-bound) Ras were quantified with the help of MIPAV software.

[19] = system: Ras-dependent cancer cells (H358, SKBR3, SKOV3, ID8, MPR-178); test: MTT growth assay on Ras-dependent cancer cells; format: cell-based, human, murine; conditions: 48 hours, 1% FBS
Procedure: Ras-dependent cancer cells (H358 human lung cancer cells, SKBR3 human breast cancer cells, SKOV3 human ovarian cancer cells, ID8 murine ovarian cancer cells, and MPR-178 murine prostate cancer cells) were grown in DMEM medium containing 1% FBS and exposed to varying concentrations of Ras inhibitors (kR-H6-48 and HR-1) for 48 hours. Cell growth was evaluated utilizing an MTT ((3-(4,5-Dimethylthiazol-2-yl)-2,5-diphenyltetrazolium) assay. The absorbance of the wells at 544 nm was determined by a FLUOstar/POLARstar Galaxy (BMG Lab Technologies GmbH, Ortenberg, Germany) microplate reader. The assays were performed on untreated (control) and test cells. Cellular responses were calculated from the data using the following formula: 100×[(T−T0)/(C−T0)] for T>T0 and 100×[(T−T0)/T0] for T<T0, wherein T0 corresponds to cell density at the time of drug addition.

[20] = target: 15N-labeled truncated K-Ras (1-166) (Homo sapiens, UniProt P01116); conditions: 200 μM protein, 25° C., chemical shift perturbations Q25, N26, S32, T35, E37
Procedure: The titration was followed by NMR ^15N-edited HSQC spectra acquired on a 600 MHz Bruker spectrometer at 25° C.

[21] = A549, MTT, Table 2 HVR derivatives
[22] = A549, MTT, Table 1 helix 6 derivatives

Ac-KKKKKKSKTKK-e-Pal [kR-4B-3] was tested. Which GI50 [1] did it give?
The GI50 was 6.2 µM.

What about the GI50 [2] of the same substance?
Its GI50 is 2.2 µM.

And the GI50 [3]?
Its GI50 is 2.9 µM.

And the GI50 [4]?
Its GI50 is 3 µM.

What about the GI50 [5] of the same substance?
Its GI50 is 1 µM.

And the “amount of Ras protein” value [6]?
Its value is “reduced the amount of Ras protein in lung cancer cells in a concentration-dependent manner”.

What about the GI50 [7] of the same substance?
Its GI50 is 1.5 µM.

What about the GI50 [8] of the same substance?
The GI50 was 7.3 µM.

What about the GI50 [9] of the same substance?
The GI50 was 2.4 µM.

What about the GI50 [10] of the same substance?
Its GI50 is 2 µM.

And the GI50 [11]?
Its GI50 is 2.7 µM.

What about the GI50 ([12]; A549, K-Ras mutant, Table 3) of the same substance?
Its GI50 is 1.45 µM.

What about the GI50 [12, 21] of the same substance?
Its GI50 is 1.75 µM.

And the GI50 [13]?
The GI50 was 4.8 µM.

What about the GI50 [14] of the same substance?
Its GI50 is greater than 10 µM.

And the GI50 [15]?
Its GI50 is 3.1 µM.

What about the GI50 [16] of the same substance?
Its GI50 is 3.3 µM.

For “Ac-YRLKKISKEEKTPGLNVKIKKK-e-Pal [kR-4A-3]”, which GI50 [1] is on record?
The GI50 was 8.2 µM.

And the GI50 [2]?
The GI50 was 5.9 µM.

What about the GI50 [3] of the same substance?
Its GI50 is 2.2 µM.

And the GI50 [4]?
Its GI50 is 4 µM.

What about the GI50 [5] of the same substance?
The GI50 was 1.5 µM.

What about the “amount of Ras protein” value [6] of the same substance?
Its value is “reduced the amount of Ras protein in lung cancer cells in a concentration-dependent manner”.

What about the GI50 [7] of the same substance?
Its GI50 is 2.4 µM.

And the GI50 [8]?
Its GI50 is greater than 10 µM.

What about the GI50 [9] of the same substance?
The GI50 was 2.6 µM.

What about the “Ras protein levels by immunostaining” value (K-Ras in H2592 cells) of the same substance?
The value was “reduction in protein levels”.

And the “pattern of K-Ras distribution” value (K-Ras in H2592 cells)?
Its value is “lack of characteristic punctuate pattern of K-Ras distribution”.

What about the GI50 [10] of the same substance?
The GI50 was 2.2 µM.

What about the GI50 [11] of the same substance?
The GI50 was 3 µM.

What about the GI50 ([12]; A549, K-Ras mutant, Table 3) of the same substance?
The GI50 was 3.1 µM.

What about the GI50 [12, 21] of the same substance?
The GI50 was 1.9 µM.

And the GI50 [13]?
The GI50 was 6.1 µM.

And the GI50 [14]?
Its GI50 is greater than 10 µM.

What about the GI50 [15] of the same substance?
The GI50 was 7.4 µM.

What about the GI50 [16] of the same substance?
Its GI50 is 5.1 µM.

Cap-YQRVQRVLTYFA (all D) [kR-H6-48] was tested. Which LLC1 isograft growth [17] did it give?
Its LLC1 isograft growth is “inhibited LLC1 isograft growth”.

And the “GTP-bound Ras (fraction of control)” value [18]?
Its value is “reduction in activated (GTP-bound) Ras”.

And the GI50 [12, 22]?
The GI50 was 0.0008 ± 0.0005 µM.

What about the “growth of Ras-dependent cancer cells (cell number, percent of control)” value [19] of the same substance?
The value was “growth inhibition of Ras-dependent cancer cells”.

Which results are given for Pal-e-KAFYTLVREIRQYR [kR-H6-6]?
site of interaction with K-Ras [20]: localized interaction of the peptide with the Switch I region of K-Ras; GI50 [12, 22]: 0.25 µM
